Read-outs that look alike come from different tables or passages of the source.

What all share (assay): Antifungal activity by the well-cut diffusion method
Type in all cases: cell-based

For assay [1], the system named is Microsporum gallinna. The settings on record: for zone of inhibition at 1000 µg/mL: Microsporum, read-out: Inhibition Zone Dimeter (mm) M. gallina. The method, then: (§1) Microsporum canis and Microsporum gallinna were obtained from King Fahad Hospital in Jeddah, Saudi Arabia
(§2) Antifungal Activity by the Well-Cut Diffusion Method:
Well-cut diffusion technique was used to evaluate the antifungal activities of the_tested compounds [El-Masry et al. “Synthesis and antimicrobial activity of some new benzimidazole derivatives” Molecules, 5 (2002), pp. 1429-1438]. The Sabaroud dexterous agar media was inoculated with 1 ml from tested spore suspension, then wells were cut from the plate using a sterile 10 mm cork-borer. About 0.5 and 1.0 ml of a chloroform solution containing 1.0 mg/ml of tested compounds were added into each well. All plates were incubated at 4° C. for 2 h to slow fungal growth. The plates were later incubated at 28° C. for a week [Mtolera and Semesi “Antimicrobial activity of extracts from six green algae from Tanzania.” Curr. Trends Mar. Bot. Res. East Afr. Reg. pp. 211-217 (1996)]. After incubation, the diameter of the growth inhibition zone was measured in mm [Attaie et al. Inhibition of growth of S. aureus during production of acidophilus yogurt J. Food Prot., 50 (1987), pp. 224-228], see Table 3.

In assay [2] the test system is Microsporum canis. As to conditions: for zone of inhibition at 500 µg/mL / zone of inhibition at 1000 µg/mL: Microsporum canis, read-out: Inhibition Zone Dimeter (mm) M. canis. Here is the method:
as §1, §2
Well-cut diffusion technique was used to evaluate the antifungal activities of the_tested compounds [El-Masry et al. “Synthesis and antimicrobial activity of some new benzimidazole derivatives” Molecules, 5 (2002), pp. 1429-1438]. The Sabaroud dexterous agar media was inoculated with 1 ml from tested spore suspension, then wells were cut from the plate using a sterile 10 mm cork-borer. […] All plates were incubated at 4° C. for 2 h to slow fungal growth. The plates were later incubated at 28° C. for a week [Mtolera and Semesi “Antimicrobial activity of extracts from six green algae from Tanzania.” Curr. Trends Mar. Bot. Res. East Afr. Reg. pp. 211-217 (1996)]. After incubation, the diameter of the growth inhibition zone was measured in mm [Attaie et al. Inhibition of growth of S. aureus during production of acidophilus yogurt J. Food Prot., 50 (1987), pp. 224-228], see Table 3.

The subject of assay [3] is Microsporum gallinna. As to conditions: for zone of inhibition at 500 µg/mL: Microsporum, read-out: Inhibition Zone Dimeter (mm) M. gallina.
Setting [4] is: Concentration 1.0 mg/mL, 28° C. for a week, 10 mm wells.
Setting [5] is: Concentration 0.5 mg/mL, 28° C. for a week, 10 mm wells.

Consider `C=CC(C)(CCC1OC1(C)C)OC(C)=O` (centres unmarked) [Epoxide 3, 6,7-Epoxy-3,7-dimethyl-1-octene-3-yl-acetate], for which the figures for the “Inhibition Zone Dimeter (mm) M. gallina” value in assay [1] (setting [4]) and in assay [3] (setting [5]) were 74.0 mm and 37.0 mm, respectively. Further, the “inhibition of Microsporum gallinna grown on the solid media (in words)” value (from here on “inhibition of Microsporum gallinna grown”) in assay [1] is “strongly inhibited”. The “Inhibition Zone Dimeter (mm) M. canis” value came to 60.0 mm in assay [2] (setting [5]) and 85.0 mm in assay [2] (setting [4]). For the same compound, in assay [2], the “inhibition of Microsporum canis grown on the solid media (in words)” value (shortened to “inhibition of Microsporum canis grown”) is given as “strongly inhibited”.
As to `CC(=O)OC(C)(CCC=C(C)C)C1CO1` (centres unmarked) [Epoxide 4, 1,2-Epoxy-3,7-dimethyl-6-octene-3-yl acetate], the zone of inhibition at 1000 µg/mL in assay [1] and in assay [2] (setting [4]) was 85 mm each time. In addition, the “inhibition of Microsporum gallinna grown” value in assay [1] is reported as “strongly inhibited”. Also, the zone of inhibition at 500 µg/mL in assay [2] (setting [5]) was found to be 75 mm; in assay [3], 65 mm. Moreover, the “inhibition of Microsporum canis grown” value in assay [2] is reported as “strongly inhibited”.
With `C=CC(C)(CCC(OO)C(=C)C)OC(C)=O` (centres unmarked) [Hydroperoxide 5, 6-Hydroperoxy-3,7-dimethylocta-1,7-diene-3-yl acetate], the zone of inhibition at 1000 µg/mL in assay [1] and in assay [2] (setting [4]) was 85 mm throughout. For the same compound, in assay [1], the “inhibition of Microsporum gallinna grown” value is “strongly inhibited”. Moreover, the “antimicrobial activity against M. canis, comparison among tested compounds” value in assay [2] (0.5 mg/ml concentration) was “highest antimicrobial activity”. The zone of inhibition at 500 µg/mL is 81 mm in assay [2] (setting [5]) and 80.5 mm in assay [3]. Also, in assay [2], the “inhibition of Microsporum canis grown” value was “strongly inhibited”. Besides, the “antimicrobial activity against M. gallinna, comparison among tested compounds” value in assay [3] (0.5 mg/ml concentration) was “highest antimicrobial activity”.
For `C=CC(C)(CC=CC(C)(C)OO)OC(C)=O` (centres unmarked) [Hydroperoxide 6, 7-Hydroperoxy-3,7-dimethylocta-1,5-diene-3-yl acetate], the zone of inhibition at 1000 µg/mL in assay [1] and in assay [2] (setting [4]) was 85 mm in each case. Also, in assay [1], the “inhibition of Microsporum gallinna grown” value is given as “strongly inhibited”. Besides, the zone of inhibition at 500 µg/mL in assay [2] (setting [5]) and in assay [3] was 80 mm each time. Also, the “inhibition of Microsporum canis grown” value in assay [2] is on record as “strongly inhibited”.
With `C=CC(C)(CCC=C(C)C)OC(C)=O` (centres unmarked) [Linalyl acetate, 3,7-Dimethyl-1,6-octadien-3-yl acetate, reference compound], in assay [1], the zone of inhibition at 1000 µg/mL is 85 mm and the “inhibition of Microsporum gallinna grown” value is listed as “strongly inhibited”. Besides, in assay [2], the zone of inhibition at 500 µg/mL came to 80 mm, the zone of inhibition at 1000 µg/mL worked out at 85 mm and the “inhibition of Microsporum canis grown” value was “strongly inhibited”. The zone of inhibition at 500 µg/mL in assay [3] is 80 mm.

For the origin of these results see US10584106B1, “Antifungal compounds derived from lavender oil” (King Abdulaziz University, priority 2018, dated 2020).
